Data published in PMC12058161, “The plant matrix of Artemisia annua L. for the treatment of malaria: Pharmacodynamic and pharmacokinetic studies” (PLOS One, 2025).
“And” between values parts separate entries of the source, which are not always exact repeats. Equal values may be shown once.

Assays:
[1] = tested on: Caco-2 cells; assay: Cytotoxicity in Caco-2 cells, CCK-8 assay; type: cell-based, human; details: for Cell survival rate%: mean; for cck-8 mean (survival fraction): mean of 6
Description: Caco-2 cells were cultured in 96-well plates for 48 h at a seeding density of 5.0 × 10^3 cells/well before the addition of drugs. […] The final concentration of DMSO was 0.05% (v/v). Experiments were initiated by replacing the culture medium in each well with 100 μL of sample solutions at 37°C in the CO2 incubator. After 48 h of incubation, the medium was removed and 10 μL of CCK-8 reagent in the serum-free medium was added to each well. The plates were then incubated at 37°C for another 2 h. At the end of the incubation period, the plates were quantified by reading the absorbance at 450 nm on a micro-plate multi-detection instrument, SpectraMax iD3 with SoftMax® Pro (Molecular Devices Corporation Sunnyvale, CA, USA). The percentage of cell viability was calculated based on the absorbance measured relative to the absorbance of cells exposed to the negative control.

[2] = in vivo; details: male, Sprague Dawley, rat, po, 352 mg/kg
[3] = Stability of the five compounds in SD rat plasma (QC samples, UHPLC-ESI-MS/MS); type: in vitro ADME; details: for 3 freeze-thaw cycles mean ± SD / 7 days at -80°C mean ± SD / Room temperature 24h mean ± SD: SD rat plasma QC sample; for stability, Accuracy (measured versus nominal concentration) / stability, mean ± SD (measured concentration): SD rat plasma, n=5
[4] = male, Sprague Dawley, rat, in vivo, po, 352 mg/kg
[5] = Caco-2, concentration 10 μmol/L
[6] = Caco-2, concentration 20 μmol/L
[7] = Caco-2, concentration 40 μmol/L
[8] = Caco-2, concentration 80 μmol/L
[9] = nominal 20 ng/mL, 3 freeze-thaw cycles
[10] = nominal 20 ng/mL, 7 days at -80°C
[11] = nominal 1000 ng/mL, 3 freeze-thaw cycles
[12] = nominal 1000 ng/mL, 7 days at -80°C
[13] = nominal 5000 ng/mL, 3 freeze-thaw cycles
[14] = nominal 5000 ng/mL, 7 days at -80°C
[15] = nominal 20 ng/mL, Room temperature 24h
[16] = nominal 1000 ng/mL, Room temperature 24h
[17] = nominal 5000 ng/mL, Room temperature 24h

AUC(0-inf) [2]: 848 ± 111 ng·h/mL
AUC(0-t) [2]: 750 ± 114 ng·h/mL
Cmax ([2]; Cmax): 143 ± 37.3 ng/mL
MRT last ([2]; MRT(0-t)): 4.04 ± 0.427 h
MRT inf ([2]; MRT(0-∞)): 6.12 ± 1.34 h
half-life ([2]; t1/2): 3.94 ± 1.57 h
Stability in plasma, measured concentration (mean ± SD) ([3]; 3 freeze-thaw cycles, QC concentration 20 ng/mL): 21.4 ± 1.03 ng/mL
Stability in plasma, measured concentration (mean ± SD) ([3]; 3 freeze-thaw cycles, QC concentration 1000 ng/mL): 1069 ± 21.8 ng/mL
Stability in plasma, measured concentration (mean ± SD) ([3]; 3 freeze-thaw cycles, QC concentration 5000 ng/mL): 4765 ± 110 ng/mL
Stability in plasma, measured concentration (mean ± SD) ([3]; 7 days at -80°C, QC concentration 20 ng/mL): 21.1 ± 1.73 ng/mL
Stability in plasma, measured concentration (mean ± SD) ([3]; 7 days at -80°C, QC concentration 1000 ng/mL): 1069 ± 21.6 ng/mL
Stability in plasma, measured concentration (mean ± SD) ([3]; 7 days at -80°C, QC concentration 5000 ng/mL): 4705 ± 267 ng/mL
Stability, measured concentration, mean ± SD ([3]; QC sample 20 ng/mL, 3 freeze-thaw cycles): 21.4 ± 1.03 ng/mL
Stability, measured concentration, mean ± SD ([3]; QC sample 20 ng/mL, 7 days at -80°C): 21.1 ± 1.73 ng/mL
Stability, measured concentration, mean ± SD ([3]; QC sample 20 ng/mL, Room temperature 24h): 21.6 ± 0.78 ng/mL
Stability, measured concentration, mean ± SD ([3]; QC sample 1000 ng/mL, 3 freeze-thaw cycles): 1069 ± 21.8 ng/mL
Stability, measured concentration, mean ± SD ([3]; QC sample 1000 ng/mL, 7 days at -80°C): 1069 ± 21.6 ng/mL
Stability, measured concentration, mean ± SD ([3]; QC sample 1000 ng/mL, Room temperature 24h): 1093 ± 39.5 ng/mL
Stability, measured concentration, mean ± SD ([3]; QC sample 5000 ng/mL, 3 freeze-thaw cycles): 4765 ± 110 ng/mL
Stability, measured concentration, mean ± SD ([3]; QC sample 5000 ng/mL, 7 days at -80°C): 4705 ± 267 ng/mL
Stability, measured concentration, mean ± SD ([3]; QC sample 5000 ng/mL, Room temperature 24h): 5205 ± 494 ng/mL
Stability in plasma, measured concentration (mean ± SD) ([3]; Room temperature 24h, QC concentration 20 ng/mL): 21.6 ± 0.78 ng/mL
Stability in plasma, measured concentration (mean ± SD) ([3]; Room temperature 24h, QC concentration 1000 ng/mL): 1093 ± 39.5 ng/mL
Stability in plasma, measured concentration (mean ± SD) ([3]; Room temperature 24h, QC concentration 5000 ng/mL): 5205 ± 494 ng/mL
3 freeze-thaw cycles mean ± SD [3, 9]: 21.4 ± 1.03 ng/mL and 21.3622 ng/mL
7 days at -80°C mean ± SD [3, 10]: 21.1 ± 1.73 ng/mL and 21.1491 ng/mL
Room temperature 24h mean ± SD ([3]; nominal 20 ng/mL): 21.6 ± 0.78 ng/mL and 21.6437 ng/mL
3 freeze-thaw cycles mean ± SD [3, 11]: 1069 ± 21.8 ng/mL and 1069.41 ng/mL
7 days at -80°C mean ± SD [3, 12]: 1069 ± 21.6 ng/mL and 1068.61 ng/mL
Room temperature 24h mean ± SD ([3]; nominal 1000 ng/mL): 1093 ng/mL and 1093 ± 39.5 ng/mL
3 freeze-thaw cycles mean ± SD [3, 13]: 4765 ± 110 ng/mL and 4765.19 ng/mL
7 days at -80°C mean ± SD [3, 14]: 4705 ± 267 ng/mL and 4704.92 ng/mL
Room temperature 24h mean ± SD ([3]; nominal 5000 ng/mL): 5205.17 ng/mL and 5205 ± 494 ng/mL
stability, Accuracy (measured versus nominal concentration) [3, 9]: 106.81%
stability, mean ± SD (measured concentration) [3, 9]: 21.4 ± 1.03 ng/mL
stability, Accuracy (measured versus nominal concentration) [3, 10]: 105.75%
stability, mean ± SD (measured concentration) [3, 10]: 21.1 ± 1.73 ng/mL
stability, Accuracy (measured versus nominal concentration) [3, 15]: 108.22%
stability, mean ± SD (measured concentration) [3, 15]: 21.6 ± 0.78 ng/mL
stability, Accuracy (measured versus nominal concentration) [3, 11]: 106.94%
stability, mean ± SD (measured concentration) [3, 11]: 1069 ± 21.8 ng/mL
stability, Accuracy (measured versus nominal concentration) [3, 12]: 106.86%
stability, mean ± SD (measured concentration) [3, 12]: 1069 ± 21.6 ng/mL
stability, Accuracy (measured versus nominal concentration) [3, 16]: 109.30%
stability, mean ± SD (measured concentration) [3, 16]: 1093 ± 39.5 ng/mL
stability, Accuracy (measured versus nominal concentration) [3, 13]: 95.30%
stability, mean ± SD (measured concentration) [3, 13]: 4765 ± 110 ng/mL
stability, Accuracy (measured versus nominal concentration) [3, 14]: 94.10%
stability, mean ± SD (measured concentration) [3, 14]: 4705 ± 267 ng/mL
stability, Accuracy (measured versus nominal concentration) [3, 17]: 104.10%
stability, mean ± SD (measured concentration) [3, 17]: 5205 ± 494 ng/mL
CL [4]: 0.024 ± 0.003 L/h
Vz [4]: 0.135 ± 0.049 L
SMILES: C[C@@H]1CC[C@H]2[C@@H](C)C(=O)O[C@@H]3O[C@@]4(C)CC[C@@H]1[C@]32O4 [DEART, Deoxyartemisinin]
Cell survival rate%, single replicate ([1]; Caco-2, 5μmol/L): 87.61% and 87.6% and 80.17% and 81.51% and 81.61% and 87.86%
Cell survival rate%, single replicate ([1]; Caco-2, 10μmol/L): 81.2% and 82.86% and 82.71% and 83.82% and 87.89% and 87.9%
Cell survival rate%, single replicate ([1]; Caco-2, 20μmol/L): 86.78% and 81.42% and 81.32% and 82.7% and 86.07% and 80.23%
Cell survival rate%, single replicate ([1]; Caco-2, 40μmol/L): 83.23% and 82.76% and 82.72% and 82.4% and 81.01% (2×)
Cell survival rate%, single replicate ([1]; Caco-2, 80μmol/L): 79.21% and 80.38% and 82.01% and 81.79% and 85.15% and 82.39%
cck-8 cell survival as fraction, single replicate ([1]; Caco-2, concentration 5 μmol/L): 0.8761 and 0.876 and 0.8017 and 0.8151 and 0.8161 and 0.8786
Cell survival rate% ([1]; Caco-2, concentration 5 μmol/L): 84.39%
cck-8 mean (survival fraction) ([1]; Caco-2, concentration 5 μmol/L): 0.84
cck-8 cell survival as fraction, single replicate [1, 5]: 0.812 and 0.8286 and 0.8271 and 0.8382 and 0.8789 and 0.879
Cell survival rate% [1, 5]: 84.40%
cck-8 mean (survival fraction) [1, 5]: 0.84
cck-8 cell survival as fraction, single replicate [1, 6]: 0.8678 and 0.8142 and 0.8132 and 0.827 and 0.8607 and 0.8023
Cell survival rate% [1, 6]: 83.09%
cck-8 mean (survival fraction) [1, 6]: 0.83
cck-8 cell survival as fraction, single replicate [1, 7]: 0.8323 and 0.8276 and 0.8272 and 0.824 and 0.8101
Cell survival rate% [1, 7]: 82.19%
cck-8 mean (survival fraction) [1, 7]: 0.82
cck-8 cell survival as fraction, single replicate [1, 8]: 0.7921 and 0.8038 and 0.8201 and 0.8179 and 0.8515 and 0.8239
Cell survival rate% [1, 8]: 81.82%
cck-8 mean (survival fraction) [1, 8]: 0.82
